# B1: IL-31: cytokine whose receptor is a heterodimer of GPL and an OSMR subunit (protein, UniProt Q6EBC2 24-164, looked up)
# Interleukin-31: SHTLPVRLLRPSDDVQKIVEELQSLSKMLLKDVEEEKGVLVSQNYTLPCLSPDAQPPNNIHSPAIRAYLKTIRQLDNKSVIDEIIEHLDKLIFQDAPETNISVPTDTHECKRFILTISQQFSECMDLALKSLTSGAQQATT
# Tests used:
# STAT3 = STAT3 phosphorylation in NHEK (Western blot); format: cell-based, human; conditions: NHEK stimulated 15 min with the cytokine
# Experimental: For STAT3 and MAPK phosphorylation, NHEK were stimulated for 15 min in the presence of the indicated cytokine. Cells were lysed in SDS sample buffer (62.5 mM Tris-HCl pH 6.8, 2% SDS, 10% glycerol, 50 mM DTT, 0.1% bromophenol blue), sonicated and then submitted to SDS-PAGE and transferred onto an Immobilon membrane. The membranes were subsequently incubated overnight with the primary antibody, before being incubated with the appropriate peroxidase-labelled secondary antibody for 60 min. The reaction was visualized by chemiluminescence according to the manufacturer's instructions. Membranes were stripped in 0.1 M glycine pH 2.8 for 2 h and neutralized in 1 M Tris-HCl pH 7.6 before reblotting. For neutralizing experiments, NHEK were incubated with the appropriate antibodies for 2 h before stimulation.
# RHE [1] = experiment: RHE histology and immunohistochemistry (Example 14); format: cell-based, human; conditions: single cytokines, 72 h
# Experimental: (§1) Normal human epidermal keratinocytes (NHEK) were obtained as previously described, from surgical samples of healthy breast skin (Boniface et al, 2005). NHEK were cultured to 80% of confluence allowing the expression of a large panel of keratinocyte differentiation markers, and then starved for 24 h in Keratinocyte SFM containing 0.03 mM Ca^2+ (Invitrogen Life Technologies, Cergy Pontoise, France) before stimulation. Confluent differentiated cells were stimulated with or without recombinant IL-17A, OSM, TNFα, IL-22 and IL-1α alone at maximum effective concentrations (reported previously around 10 ng/ml (Boniface et al, 2005 and Boniface et al, 2007)) or in combination (R&D systems Europe, Lille, France) during 2 h to 72 h for mRNA quantification. RHE were generated on polycarbonate culture inserts, from surgical samples of paediatric foreskins as previously described (Guenou et al., 2009). RHE were stimulated with or without recombinant IL-17A, OSM, TNFα, IL-22 and IL-1α alone or in combination, with or without a Janus protein Tyrosine Kinases (JAKs) inhibitor 10 μM (Calbiochem, 420099), during 24 h for mRNA quantification or during 72 h for immunohistological analysis.
# RHE were washed and fixed with formaldehyde solution. Fixed tissues were dehydrated with increasing ethanol concentrations, embedded in paraffin and sections were carried out using a microtome (4 μm thickness). The sections were deparaffinised, washed and incubated with hydrogen peroxide. The sections were incubated with anti-CK10 (SantaCruz, SC-23877), anti-LOR (Eurogentec, PRB-145P), anti-FLG (SantaCruz, SC-66192), anti-IVL (Biomedical Technologies, BT-601), anti-S100A7 (Clinisciences, IMG-409A) and then detected using a biotin-conjugated secondary antibody (Vector, RTU vectastain universal quick kit, PK-7800). After peroxidase-conjugated streptavidine (Vector, RTU vectastain universal quick kit, PK-7800) and peroxidase substrate addition (Dako, Substrat hyper-sensible AEC+), nuclei were counter-stained using a solution of hematoxylin. Sections were observed using a NIKON E400 microscope. The images were captured using a NIKON DS-Ril and processed with NIS-Elements 3.10 software.
# NHEK [2] = experiment: Cytokine measurement by ELISA in NHEK culture supernatants; format: cell-based, human; conditions: 96 h
# Experimental: (§2) NHEK were obtained as previously described, from surgical samples of healthy breast skin (Boniface et al, 2005). NHEK were cultured to 80% of confluence and then starved for 24 h in Keratinocyte SFM without addition of growth factors before stimulation. Cells were stimulated with or without 10 ng/ml of recombinant IL-17A, OSM, TNFα, IL-22 and IL-1α alone or in combination (R&D systems Europe, Lille, France) during 24 h for mRNA quantification or 48 h to 96 h for protein quantification.
# Levels of BD2, BD3 and CXCL8 were determined using Human ELISA development kit (Peprotech), and CXCL1 and CXCL5 with DuoSet reagents (R&D Systems Europe).
# NHEK [3] = experiment: cDNA macroarrays analysis of 36 cytokines on 154 genes in NHEK; format: cell-based, human; conditions: 10 ng/ml, 24 h
# Experimental: The comparison of the effects of 36 different cytokines on the expression of 154 genes of potential interest for skin physiology was performed using home-made cDNA macroarrays analysis. After cytokine stimulation, total RNA was extracted using TRIzoI® Reagent (Invitrogen life Technologies) and conventional 33P-cDNA target synthesis and hybridization were performed (Boniface et al, 2007). Genes were considered regulated if expression levels differed more than 3-fold relative to untreated control and 3-fold relative to mean background noise.
# NHEK [4] = experiment: Keratinocyte differentiation marker (KDM) mRNA in NHEK (RT-PCR); format: cell-based, human; conditions: 24 h; for mRNA expression of CK1, DSG1, DSC1, FLG, CLSP, LOR and FABPS: single cytokines 10 ng/ml
# Experimental: as §1
# (§3) NHEK, RHE and murine skin total RNA were isolated using NucleoSpin® RNA II kit (Macherey-Nagel, Hoerdt, France) and reverse-transcribed with SuperScript® II Reverse Transcriptase (Invitrogen Life Technologies) according to the manufacturer's instructions. Quantitative real time PCR was carried out using the LightCycler-FastStart DNA Master SYBR® Green I kit on LightCycler 480 (Roche Diagnostics, Meylan, France). The reaction components were 1×DNA Master Mix, and 0.5 μM of HPLC purified sense and anti-sense oligonucleotides purchased from Eurogentec (Eurogentec France, Angers, France), designed using Primer3 software. The stability of the housekeeping gene expression has been assessed by using GeNorm algorithm. […] Thus samples were normalized to G3PDH housekeeping gene and reported according to the ΔΔCT method as RNA fold increase: 2^ΔΔCT=2^ΔCT sample−ΔCT reference.
# NHEK [5] = experiment: RT-QPCR of antimicrobial peptide and chemokine genes in NHEK; format: cell-based, human; conditions: 10 ng/ml, 24 h
# Experimental: as §2
# NHEK and skin total RNA were isolated and reverse-transcribed as previously described (Boniface et al, 2005). Quantitative real time PCR was carried using the LightCycler-FastStart DNA Master SYBR® Green I kit on LightCycler 480 (Roche Diagnostics, Meylan, France). The reaction components were 1×DNA Master Mix, and 0.5 μM of HPLC purified sense and anti-sense oligonucleotides purchased from Eurogentec (Eurogentec France, Angers, France), designed using Primer3 software. Samples were normalized to three independent control housekeeping genes (G3PDH, RPL13A or ACTB for human samples and G3PDH, HMBS or B2m for mouse samples) and reported according to the ΔΔCT method as RNA fold increase: 2^ΔΔCT=2^ΔCT sample−ΔCT eference. For comparison of normal skin and psoriatic skin the REST 2008 software was used (Pfaffl et al., 2002).
# [6] = system: normal human keratinocytes (NHEK); experiment: Cytokine cocktails on S100A7, hBD2/4, KRT10 mRNA in NHEK (RT-Q-PCR); format: cell-based; conditions: NHEK 24 hrs, 1 ng/ml each
# Experimental: (§4) Quantitative real time PCR was carried out using the LightCycler-FastStart DNA Master^PLUS SYBR Green I kit (Roche, Mannheim, Germany). The reaction components were 1× FastStart DNA Master^PLUS SYBR Green I and 0.5 μM of forward and reverse primers for S100A7 (forward 5′-[…]-3′ (SEQ ID No: 9) and reverse 5′-[…]-3′ (SEQ ID No: 10)), S100A8 (Pattyn, Speleman et al. 2003), S100A9 (forward 5′-[…]-3′ (SEQ ID No: 11) and reverse 5′-[…]-3′ (SEQ ID No: 12)), hBD2/4 (forward 5′-[…]-3′ (SEQ ID No: 13) and reverse 5′-[…]-3′ (SEQ ID No: 14)), KRT10 (forward 5′-[…]-3′ (SEQ ID No: 15) and reverse 5′-[…]-3′ (SEQ ID No: 16)), and hydroxymethyl-bilane synthase (HMBS) as a housekeeping gene (Vandesompele, De Preter et al. 2002). After cDNA fluorescent quantification using propidium iodide, 250 ng, 25 ng and 2.5 ng of cDNA were added as PCR template in the LightCycler glass capillaries. The cycling conditions comprised a 10 min polymerase activation at 95° C. and 50 cycles at 95° C. for 10 s, 64° C. for 5 s and 72° C. for 18 s with a single fluorescence measurement. […] A mathematical model was used to determine the relative quantification of target genes compared to HMBS reference gene (Pfaffl 2001).
# To that aim, confluent normal human keratinocytes (NHEK) were treated for 24 hrs with the indicated mix of cytokines (each cytokine at 1 ng/ml final concentration). Total RNA was extracted, reverse-transcribed and the expression of the selected genes was analyzed by real-time PCR as described.
# NHEK [7] = experiment: S100A7 Western blotting in NHEK (Example 13); format: cell-based, human; conditions: 10 ng/ml, 96 h
# Experimental: After 96 h of stimulation, NHEK lysis was performed as previously described (Boniface et al, 2005). After separation by SDS-PAGE, proteins were transferred to nitrocellulose membranes (Amersham pharmacia biotech) by electroblotting. S100A7 was detected with mouse anti-human S100A7 mAb (Imgenex, San Diego, Calif., USA) and sheep anti-mouse IgG peroxidase-conjugated polyclonal Ab (Amersham Biosciences). Bound Ab were detected by chemiluminescence (ECL Hyperfilm and ECL Plus Reagen, Amersham Biosciences Ltd).
# RHE [8] = experiment: KDM mRNA in reconstituted human epidermis (RT-PCR); format: cell-based; conditions: 24 h
# Experimental: as §1, §3
# NHEK [9] = experiment: In vitro keratinocyte migration assay; format: cell-based, human; conditions: mitomycin-treated wounded NHEK; OSM 10 ng/ml, IL-31 100 ng/ml
# Experimental: Keratinocytes were cultured in wells pre-coated with type I collagen (200 μg/ml, Institut Jacques Boy, Reims, France) until they reached 80% confluency. Cells were starved for 48 h in Keratinocyte SFM and then treated with 10 μg/ml of mitomycin C (Sigma) for 2 h to prevent cell proliferation. A cell-free area was created by scraping the keratinocyte monolayer with a plastic pipette tip. Keratinocytes migration to the cell-free area was evaluated after 48 h of culture in the absence or presence of EGF or OSM. Using an inverted phase contrast microscope. The number of migrating keratinocytes was counted in 4 non-overlapping fields. Values represent the mean±SEM of cells per mm^2 beyond the frontiers of the in vitro injury. Student's t test was used for statistical analysis.
# NHEK [10] = experiment: RT-real time PCR of S100 mRNA in cytokine-stimulated NHEK; format: cell-based, human; conditions: IL-31
# Experimental: as §4
Molecule,STAT3 tyrosine phosphorylation (P-STAT3) (STAT3),"CK10, LOR and FLG expression (immunohistology) (RHE [1]; RHE)",RHE histology (RHE [1]),"BD2 production, single cytokines (NHEK [2]; 10 ng/ml)",BD3 production (NHEK [2]; 10 ng/ml),"CXCL1, CXCL5, CXCL8 production, single cytokines (NHEK [2]; 10 ng/ml)",Number of genes (of 154) whose expression is modified with at least a three fold increase or decrease (NHEK [3]),Number of KDM whose control mRNA expression is partially restored on removal of the cytokine from M5 (NHEK [4]),"mRNA expression of CK1, DSG1, DSC1, FLG, CLSP, LOR and FABPS (NHEK [4])",Number of the 21 chemokine and antimicrobial peptide genes upregulated (NHEK [5]),Effect of depleting the cytokine from the mix on activity of the complete cocktail [6],S100A7 expression in NHEK (western blotting) (NHEK [7]),IVL expression (immunohistology) (RHE [1]; RHE),S100A7 expression (immunohistology) (RHE [1]; RHE),Contribution to M5 activity on BD2 and CXCL8 production (successive removal) (NHEK [2]),"Decrease of the activity of the 5 cytokines reference mix on omission of the cytokine, S100A7 [6]","Decrease of the activity of the 5 cytokines reference mix on omission of the cytokine, hBD2/4 [6]",IVL mRNA expression (RHE [8]),Keratinocyte migration to the cell-free area (NHEK [9]),Expression of psoriasin and calgranulin A and B (S100A8-9) (NHEK [10])
"LIF: leukemia inhibitory factor, cytokine of the IL-6 family",no evidence for a STAT3 activation,–,–,–,–,–,–,–,–,–,–,–,–,–,–,–,–,–,–,–
IL-1α: recombinant cytokine IL-1α,–,did not exhibit any activity,does not modify RHE histology,most potent inducers,significant increase,most effective,at least five genes,3 KDM,minor activities,19,did not significantly decrease the activity,most potent inducer,–,–,–,–,–,–,–,–
"IL-17A: recombinant cytokine; IL-17 designates IL-17A, IL-17B or a mixture, preferably IL-17A",–,did not exhibit any activity,does not modify RHE histology,most potent inducers,–,–,at least five genes,3 KDM,minor activities,16,–,–,discreetly induced,very slightly,more critical to the activity of the M5 combination,4.5 fold,36 fold,discretely inhibited,–,–
B1,recruits STAT3 signaling pathways,–,–,–,–,–,–,–,–,–,–,–,–,–,–,–,–,–,able to induce keratinocyte migration,induces expression
